Test results reported in ChEMBL document CHEMBL4420076, “Amylin and calcitonin receptor agonist” (2017).
pEC50, pIC50: −log10 of the molar value. Numbered stars: 1 amine (or outer) side, 2 acyl side, 3 side chain; on linkers, the order of the positions; unused ones are H or OH. Peptide text beside a SMILES is read from it. * marks the point of attachment. C20 diacid = O=C(O)CCCCCCCCCCCCCCCCCCC(=O)*; C16 diacid = O=C(O)CCCCCCCCCCCCCCC(=O)*; γGlu = O=C(O)[C@H](CCC(=O)[*:2])N[*:1]

Tests used:
[1] = target: T1, Amylin receptor AMY3; CALCR/RAMP3 (Homo sapiens, UniProt O60896+P30988); assay: Agonist activity at human amylin receptor expressed in BHK570 cells co-expressing RAMP3 assessed as increase in intracellular cAMP concentration incubated for 3 hrs in presence of 10% FBS by CRE luciferase reporter gene assay; assay type: functional, cell-based
T1 sequence (P30988 whole entry): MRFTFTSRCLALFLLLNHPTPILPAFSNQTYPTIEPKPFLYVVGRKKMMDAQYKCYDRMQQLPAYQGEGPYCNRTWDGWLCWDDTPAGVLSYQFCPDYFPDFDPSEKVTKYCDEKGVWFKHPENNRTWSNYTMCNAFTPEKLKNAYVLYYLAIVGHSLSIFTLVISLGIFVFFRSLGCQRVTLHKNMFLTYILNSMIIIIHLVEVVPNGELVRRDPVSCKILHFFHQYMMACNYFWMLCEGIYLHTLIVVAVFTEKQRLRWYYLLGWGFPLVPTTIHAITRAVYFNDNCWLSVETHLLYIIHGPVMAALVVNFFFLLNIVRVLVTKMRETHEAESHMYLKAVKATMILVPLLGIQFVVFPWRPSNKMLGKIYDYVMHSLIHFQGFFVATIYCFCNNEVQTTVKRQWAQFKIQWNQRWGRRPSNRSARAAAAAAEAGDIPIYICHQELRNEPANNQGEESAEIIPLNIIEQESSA
T1 sequence (O60896 whole entry): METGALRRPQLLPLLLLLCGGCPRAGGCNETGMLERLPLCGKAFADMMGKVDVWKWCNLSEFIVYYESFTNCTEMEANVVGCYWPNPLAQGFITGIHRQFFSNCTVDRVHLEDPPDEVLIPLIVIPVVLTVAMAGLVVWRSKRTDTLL

[2] = Solubility in 100 mM bistrispropane buffer at pH 7.0 incubated for 18 hrs by UPLC analysis; assay type: physicochemical
[3] = Solubility in 100 mM glycylglycine buffer at pH 4.0 incubated for 18 hrs by UPLC analysis; assay type: physicochemical
[4] = Solubility in 100 mM glycylglycine buffer at pH 5.0 incubated for 18 hrs by UPLC analysis; assay type: physicochemical
Calcitonin receptor [5] = target: T2, Calcitonin receptor (Homo sapiens, UniProt P30988); assay: Displacement of [125I]-labeled human calcitonin from human calcitonin receptor expressed in BHK tkts13 cell membranes incubated for 1 hr by scintillation proximity assay
T2 sequence (P30988 whole entry): T1 sequence (P30988 whole entry)

[6] = target: T1, Amylin receptor AMY3; CALCR/RAMP3; assay: Agonist activity at human amylin receptor expressed in BHK570 cells co-expressing RAMP3 assessed as increase in intracellular cAMP concentration incubated for 3 hrs in absence of albumin by CRE luciferase reporter gene assay; assay type: functional, cell-based
[7] = Stability in pH 7.5 buffer assessed as compound recovery at 1 uM by Thioflavin T based fluorescence assay; assay type: physicochemical; settings: read-out: Drug recovery
[8] = Solubility in 100 mM glycylglycine buffer at pH 3.0 incubated for 18 hrs by UPLC analysis; assay type: physicochemical
[9] = target: T3, Amylin receptor AMY3; CALCR/RAMP3 (Rattus norvegicus, UniProt P32214+Q9JJ73); assay: Displacement of [125I]-labeled rat amylin from rat amylin receptor expressed in BHK tkts13 cell membranes co-expressing RAMP3 incubated for 120 mins by scintillation proximity assay
T3 sequence (P32214 whole entry): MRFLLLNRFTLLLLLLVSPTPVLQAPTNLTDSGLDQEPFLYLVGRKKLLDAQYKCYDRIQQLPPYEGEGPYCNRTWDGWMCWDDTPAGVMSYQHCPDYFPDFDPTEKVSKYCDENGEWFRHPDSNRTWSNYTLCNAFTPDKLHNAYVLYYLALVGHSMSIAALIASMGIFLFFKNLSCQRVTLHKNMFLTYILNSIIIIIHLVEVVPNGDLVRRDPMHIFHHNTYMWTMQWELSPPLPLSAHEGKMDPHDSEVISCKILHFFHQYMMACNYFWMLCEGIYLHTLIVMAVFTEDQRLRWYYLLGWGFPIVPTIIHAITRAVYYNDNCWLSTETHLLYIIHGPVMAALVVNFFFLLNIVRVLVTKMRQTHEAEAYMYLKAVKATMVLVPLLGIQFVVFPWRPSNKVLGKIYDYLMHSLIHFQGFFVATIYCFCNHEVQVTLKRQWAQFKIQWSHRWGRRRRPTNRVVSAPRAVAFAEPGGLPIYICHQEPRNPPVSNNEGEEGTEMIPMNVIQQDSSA
T3 sequence (Q9JJ73 whole entry): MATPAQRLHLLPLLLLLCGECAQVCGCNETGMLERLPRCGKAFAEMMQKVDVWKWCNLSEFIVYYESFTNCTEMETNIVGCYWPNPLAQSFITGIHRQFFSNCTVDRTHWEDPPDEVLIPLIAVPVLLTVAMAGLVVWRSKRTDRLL

[10] = Solubility in 100 mM bistrispropane buffer at pH 6.0 incubated for 18 hrs by UPLC analysis; assay type: physicochemical
Calcitonin receptor [11] = target: T2, Calcitonin receptor; assay: Agonist activity at human calcitonin receptor expressed in BHK570 cells assessed as increase in intracellular cAMP concentration incubated for 3 hrs in absence of albumin by CRE luciferase reporter gene assay; assay type: functional, cell-based
[12] = target: T1, Amylin receptor AMY3; CALCR/RAMP3; assay: Displacement of [125I]-labeled rat amylin from human amylin receptor expressed in BHK570 cell membranes co-expressing RAMP3 incubated for 120 mins by scintillation proximity assay
[13] = Solubility in 100 mM bistrispropane buffer at pH 6.5 incubated for 18 hrs by UPLC analysis; assay type: physicochemical
Calcitonin receptor [14] = target: T2, Calcitonin receptor; assay: Agonist activity at human calcitonin receptor expressed in BHK570 cells assessed as increase in intracellular cAMP concentration incubated for 3 hrs in presence of 10% FBS by CRE luciferase reporter gene assay; assay type: functional, cell-based
[15] = Solubility in 100 mM bistrispropane buffer at pH 8.0 incubated for 18 hrs by UPLC analysis; assay type: physicochemical
[16] = Stability in pH 7.5 buffer assessed as lag time for fibril formation at 1 uM by Thioflavin T based fluorescence assay; assay type: physicochemical; settings: pH 7.5, 1 µM
[17] = Solubility in 100 mM bistrispropane buffer at pH 7.5 incubated for 18 hrs by UPLC analysis; assay type: physicochemical
Rattus norvegicus [18] = assay: Reduction in food intake in Sprague-Dawley rat at 3 nmol/kg measured 24 to 48 hrs post dose relative to control; assay type: functional; parameters: scale not given: the % may be the effect or the level left
Rattus norvegicus [19] = assay: Reduction in food intake in Sprague-Dawley rat at 3 nmol/kg measured 0 to 24 hrs post dose relative to control; assay type: functional; parameters: scale not given: the % may be the effect or the level left
[20] = target: T1, Amylin receptor AMY3; CALCR/RAMP3; assay: Displacement of [125I]-labeled rat amylin from human amylin receptor expressed in BHK tkts13 whole cells co-expressing RAMP3 incubated for 60 mins by scintillation proximity assay; assay type: cell-based

pEC50 [1] | solubility at 18 h [2] [µM] | solubility at 18 h [3] [µM] | solubility at 18 h [4] [µM] | pIC50 (Calcitonin receptor [5]) | pEC50 [6] | remaining at 1 µM [7] [%] | solubility at 18 h [8] [µM] | pIC50 [9] | solubility at 18 h [10] [µM] | pEC50 (Calcitonin receptor [11]) | pIC50 [12] | solubility at 18 h [13] [µM] | pEC50 (Calcitonin receptor [14]) | solubility at 18 h [15] [µM] | Time [16] [h] | solubility at 18 h [17] [µM] | pIC50 [20] | SMILES | Activity (Rattus norvegicus [18]) [%] | Activity (Rattus norvegicus [19]) [%]
11.40 | ≥ 200 | ≥ 200 | ≥ 200 | 10.62 | 10.74 | 100 | ≥ 200 | 10.66 | ≥ 200 | 10.82 | 10.43 | ≥ 200 | 11.70 | ≥ 200 | > 45 | ≥ 200 |  | CC(C)C[C@H](NC(=O)[C@H](C)NC(=O)[C@H](C)NC(=O)[C@@H](NC(=O)[C@H](CO)NC(=O)[C@H](CC(C)C)NC(=O)[C@H](CCC(=O)O)NC(=O)[C@H](CO)NC(=O)[C@H](C)NC(=O)CC[C@H](NC(=O)CCCCCCCCCCCCCCC(=O)O)C(=O)O)[C@@H](C)O)C(=O)NCC(=O)N[C@@H](CCCNC(=N)N)C(=O)N[C@@H](CC(C)C)C(=O)N[C@@H](CO)C(=O)N[C@@H](C)C(=O)N[C@@H](CCC(=O)O)C(=O)N[C@@H](CC(C)C)C(=O)N[C@@H](Cc1cnc[nH]1)C(=O)N[C@@H](CCC(=O)O)C(=O)N[C@@H](CC(C)C)C(=O)N[C@@H](C)C(=O)N[C@H](C(=O)N[C@@H](CC(C)C)C(=O)N1CCC[C@H]1C(=O)N[C@@H](CCCNC(=N)N)C(=O)N[C@H](C(=O)N[C@@H](CCC(=O)O)C(=O)N[C@H](C(=O)NCC(=O)N[C@@H](CO)C(=O)NCC(=O)N[C@@H](CO)C(=O)N1CCC[C@H]1C(N)=O)[C@@H](C)O)[C@@H](C)O)[C@@H](C)O ({C16 diacid-γGlu}-ASELSTAALGRLSAELHELATLPRTETGSGSP-NH2) | 10 | 66
 | ≥ 200 | ≥ 200 | ≥ 200 | 10.47 | 10.28 | 100 | ≥ 200 | 10.34 | ≥ 200 | 10.32 | 10.24 | ≥ 200 | 10.14 | ≥ 200 | > 45 | ≥ 200 | 8.97 | CC(C)C[C@H](NC(=O)[C@H](C)NC(=O)[C@H](C)NC(=O)[C@@H](NC(=O)[C@H](CO)NC(=O)[C@H](CC(C)C)NC(=O)[C@H](CCC(=O)O)NC(=O)[C@H](CO)NC(=O)[C@H](C)NC(=O)CC[C@H](NC(=O)CCCCCCCCCCCCCCCCCCC(=O)O)C(=O)O)[C@@H](C)O)C(=O)NCC(=O)N[C@@H](CCCNC(=N)N)C(=O)N[C@@H](CC(C)C)C(=O)N[C@@H](CO)C(=O)N[C@@H](C)C(=O)N[C@@H](CCC(=O)O)C(=O)N[C@@H](CC(C)C)C(=O)N[C@@H](Cc1cnc[nH]1)C(=O)N[C@@H](CCC(=O)O)C(=O)N[C@@H](CC(C)C)C(=O)N[C@@H](C)C(=O)N[C@H](C(=O)N[C@@H](CC(C)C)C(=O)N1CCC[C@H]1C(=O)N[C@@H](CCCNC(=N)N)C(=O)N[C@H](C(=O)N[C@@H](CCC(=O)O)C(=O)N[C@H](C(=O)NCC(=O)N[C@@H](CO)C(=O)NCC(=O)N[C@@H](CO)C(=O)N[C@@H](Cc1cnc[nH]1)C(N)=O)[C@@H](C)O)[C@@H](C)O)[C@@H](C)O ({C20 diacid-γGlu}-ASELSTAALGRLSAELHELATLPRTETGSGSH-NH2) |  | 
 | ≥ 200 | ≥ 200 |  | 10.29 | 10.43 | 100 | ≥ 200 | 10.11 | ≥ 200 | 10.60 | 9.88 | ≥ 200 | 9.97 | ≥ 200 | > 45 | ≥ 200 |  | CC(C)C[C@H](NC(=O)CNC(=O)[C@H](CO)NC(=O)[C@H](C)NC(=O)CC[C@H](NC(=O)CCCCCCCCCCCCCCCCCCC(=O)O)C(=O)O)C(=O)N[C@@H](CO)C(=O)N[C@H](C(=O)N[C@@H](C)C(=O)N[C@@H](C)C(=O)N[C@@H](CC(C)C)C(=O)NCC(=O)N[C@@H](CCCNC(=N)N)C(=O)N[C@@H](CC(C)C)C(=O)N[C@@H](CO)C(=O)N[C@@H](CCC(N)=O)C(=O)N[C@@H](CCC(=O)O)C(=O)N[C@@H](CC(C)C)C(=O)N[C@@H](Cc1cnc[nH]1)C(=O)N[C@@H](CCC(=O)O)C(=O)N[C@@H](CC(C)C)C(=O)N[C@@H](CCC(N)=O)C(=O)N[C@H](C(=O)N[C@@H](Cc1ccc(O)cc1)C(=O)N1CCC[C@H]1C(=O)N[C@@H](CCCNC(=N)N)C(=O)N[C@H](C(=O)N[C@@H](CCC(=O)O)C(=O)N[C@H](C(=O)NCC(=O)N[C@@H](CO)C(=O)N[C@@H](CCC(N)=O)C(=O)N[C@H](C(=O)N[C@@H](Cc1ccc(O)cc1)C(N)=O)[C@@H](C)O)[C@@H](C)O)[C@@H](C)O)[C@@H](C)O)[C@@H](C)O ({C20 diacid-γGlu}-ASGLSTAALGRLSQELHELQTYPRTETGSQTY-NH2) | 42 | 40
 | ≥ 200 |  |  | 10.17 | 10.14 | 39.5 | ≥ 200 | 10.28 | ≥ 200 | 10.31 | 9.82 | ≥ 200 | 10.21 | ≥ 200 | 1.5 | ≥ 200 |  | CC(C)C[C@H](NC(=O)CNC(=O)[C@H](CO)NC(=O)[C@H](C)NC(=O)CC[C@H](NC(=O)CCCCCCCCCCCCCCCCCCC(=O)O)C(=O)O)C(=O)N[C@@H](CO)C(=O)N[C@H](C(=O)N[C@@H](C)C(=O)N[C@H](C(=O)N[C@@H](CC(C)C)C(=O)NCC(=O)N[C@@H](CCCNC(=N)N)C(=O)N[C@@H](CC(C)C)C(=O)N[C@@H](CO)C(=O)N[C@@H](CCC(N)=O)C(=O)N[C@@H](CCC(=O)O)C(=O)N[C@@H](CC(C)C)C(=O)N[C@@H](Cc1cnc[nH]1)C(=O)N[C@@H](CCC(=O)O)C(=O)N[C@@H](CC(C)C)C(=O)N[C@@H](CCC(N)=O)C(=O)N[C@H](C(=O)N[C@@H](Cc1ccc(O)cc1)C(=O)N1CCC[C@H]1C(=O)N[C@@H](CCCNC(=N)N)C(=O)N[C@H](C(=O)N[C@@H](CCC(=O)O)C(=O)N[C@H](C(=O)NCC(=O)N[C@@H](CO)C(=O)N[C@@H](CCC(N)=O)C(=O)N[C@H](C(=O)N[C@@H](Cc1ccc(O)cc1)C(N)=O)[C@@H](C)O)[C@@H](C)O)[C@@H](C)O)[C@@H](C)O)C(C)C)[C@@H](C)O ({C20 diacid-γGlu}-ASGLSTAVLGRLSQELHELQTYPRTETGSQTY-NH2) | 29 | 25
